Source: patent publication US6281355A, “Nitrogen-containing tetracyclic compounds” (Taisho Pharmaceutical Co., Ltd., priority 1997, dated 2001)

biological target: T1, mitochondrial diazepam binding inhibitor receptor (MDR) (Rattus norvegicus, UniProt P16257); test: MDR Receptor Binding Assay ([3H]PK11195 binding to crude mitochondria fraction of rat cerebral cortex); details: inhibition of [3H]PK11195 (2 nM) binding; rat cerebral cortex crude mitochondria 1.0 mg protein/ml; 4° C., 90 minutes; non-specific: 10 μM PK11195
T1 construct: Crude mitochondria fractions prepared from rat cerebral cortex were used as a receptor sample; from tissue; host or cells: rat cerebral cortex, crude mitochondria fraction
Protocol: Experiment [MDR Receptor Binding Assay]
Crude mitochondria fractions prepared from rat cerebral cortex were used as a receptor sample, and [^3 H]PK11195 was used as a [^3 H]-labeled ligand.
A binding assay using the [^3 H]-labeled ligand was carried out according to the following method as described in Journal of Pharmacology and Experimental Therapeutics, 262, 971(1992).
Preparation of Receptor Sample: Rat cerebral cortex was homogenized using a Teflon-coated homogenizer in a 10 mM HEPES buffer (pH 7.4) containing 0.32 M sucrose in ten volumes of the wet weight. The homogenate was centrifuged at 900× g for 10 minutes, and the resulting supernatant was centrifuged at 9,000× g for 10 minutes. The precipitate was suspended in a HEPES buffer to give a protein concentration of 1 mg/ml, and centrifuged at 12,000× g for 10 minutes. The resulting precipitate was suspended in a 50 mM HEPES buffer (pH 7.4) to give a crude mitochondria fraction.
MDR Binding Assay: Mitochondria sample (1.0 mg protein/ml), [^3 H]PK11195 (2 nM) and the test drug were reacted at 4° C. for 90 minutes.
After completion of the reaction, the reaction mixture was filtered with suction through a glass filter (GF/B) treated with 0.3% polyethyleneimine,and the radioactivity on the filter was measured by a liquid scintillation spectrometer.
The binding at the reaction in the presence of 10 μM PK11195 was defined as non-specific binding of [^3 H]PK11195, and the difference between total binding and non-specific binding was defined as specific binding.

T1 sequence (P16257 whole entry): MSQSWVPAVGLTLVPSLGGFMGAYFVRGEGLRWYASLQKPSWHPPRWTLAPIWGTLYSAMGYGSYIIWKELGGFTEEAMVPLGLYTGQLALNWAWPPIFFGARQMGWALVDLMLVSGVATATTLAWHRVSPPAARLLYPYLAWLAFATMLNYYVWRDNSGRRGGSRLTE

Row | SMILES | IC50 [nM]
1 | CCCCCCN(CCCCCC)C(=O)C1Sc2ccccc2-c2[nH]c3ccccc3c21 (racemic) [Compound 06, N,N-Dihexyl-6,11-dihydro-5-thia-11-aza-benzo[a]fluoren-6-carboxamide] | 3.76
2 | CCCCCCN(CCCCCC)C(=O)C1Sc2ccccc2-c2[nH]c3ccccc3c21 (single isomer, unassigned; (+)) [Compound 08, (+)-N,N-Dihexyl-6,11-dihydro-5-thia-11-aza-benzo[a]fluoren-6-carboxamide] | 2.15
3 | CCCCCCN(CCCCCC)C(=O)C1Sc2ccccc2-c2[nH]c3ccccc3c21 (single isomer, unassigned; (-)) [Compound 07, (-)-N,N-Dihexyl-6,11-dihydro-5-thia-11-aza-benzo[a]fluoren-6-carboxamide] | 42.3
4 | CCCNC(=O)C1Sc2ccccc2-c2[nH]c3ccccc3c21 (stereo not drawn) [Compound 02] | 55.9
5 | CN(C)C(=O)C1Sc2ccccc2-c2[nH]c3ccccc3c21 (stereo not drawn) [Compound 03] | 38.5
6 | CCN(CC)C(=O)C1Sc2ccccc2-c2[nH]c3ccccc3c21 (stereo not drawn) [Compound 04] | 0.443
7 | CCCN(CCC)C(=O)C1Sc2ccccc2-c2[nH]c3ccccc3c21 (stereo not drawn) [Compound 05, N,N-dipropyl-6,11-dihydro-5-thia-11-aza-benzo[a]fluoren-6-carboxamide] | 0.368
8 | CCCCCCN(CCCCCC)C(=O)C1Sc2ccccc2-c2[nH]c3ccc(F)cc3c21 (stereo not drawn) [Compound 09] | 13.8
9 | CCCCCCN(CCCCCC)C(=O)C1Sc2ccccc2-c2[nH]c3ccc(Cl)cc3c21 (stereo not drawn) [Compound 10] | 20.1
10 | CCCCCCN(CCCCCC)C(=O)C1Sc2ccccc2-c2[nH]c3ccc(C)cc3c21 (stereo not drawn) [Compound 11] | 13.9
11 | CCCCCCN(CCCCCC)C(=O)C1Sc2ccccc2-c2[nH]c3c(F)cc(F)cc3c21 (stereo not drawn) [Compound 12] | 22.1
12 | CCCCCCN(CCOCCC)C(=O)C1Sc2ccccc2-c2[nH]c3ccccc3c21 (stereo not drawn) [Compound 14] | 1.35
13 | COCCN(CCOC)C(=O)C1Sc2ccccc2-c2[nH]c3ccccc3c21 (stereo not drawn) [Compound 15] | 4.98
14 | CCCCCCN(CCCCCC)C(=O)C1Sc2ccccc2-c2c1c1ccccc1n2C (stereo not drawn) [Compound 16, N,N-Dihexyl-6,11-dihydro-11-methyl-5-thia-11-aza-benzo[a]fluoren-6-carboxamide] | 1.35
15 | CCCN(CCC)C(=O)C1c2c([nH]c3ccccc23)-c2ccccc2S1(=O)=O (stereo not drawn) [Compound 21, N,N-dipropyl-6,11-dihydro-5-thia-11-aza-benzo[a]fluoren-6-carboxamide 5,5-dioxide] | 1.12
16 | CCCCCCN(CCCCCC)C(=O)C1c2c([nH]c3ccccc23)-c2ccccc2S1(=O)=O (stereo not drawn) [Compound 22] | 1.23
17 | CCCCCCN(CCCCCC)C(=O)C1Cc2ccccc2-c2[nH]c3ccccc3c21 (stereo not drawn) [Compound 23] | 1.35
18 | CCCN(CCC)C(=O)C1Cc2ccccc2-c2nc3ccccc3n21 (stereo not drawn) [Compound 25] | 73.9
19 | CCCCCCN(CCCCCC)C(=O)C1Cc2ccccc2-c2nc3ccccc3n21 (stereo not drawn) [Compound 26, N,N-dihexyl-5,6-dihydro-benzo[4,5]imidazo[2,1-a]isoquinoline-6-carboxamide] | 42.3
20 | CCCCCCN(CCCCCC)C(=O)C1c2c([nH]c3ccccc23)-c2ccccc2N1C=O (stereo not drawn) [Compound 27] | 35.1
21 | CCCCCCN(CCCCCC)C(=O)C1c2c([nH]c3ccccc23)-c2ccccc2N1C(C)=O (stereo not drawn) [Compound 28] | 12.6
